Here are results for 2 molecules from patent US20070217999A1, “Excretable Reporter Systems” (Roslin Institute (Edinburgh), priority 2003, published 2007).

For data set [1], the system named is Cyp1A1-SEAP transgene (rat Cyp1A1 promoter). Description: 3MC induced Cyp1A1-SEAP vector expression in transgenic mice, SEAP activity in urine and blood.
Description: 3MC was administered to female and male mice (of at least 8 weeks of age) as a suspension in Mazola brand corn oil by i.p. injection. Test animals were either transgenic or non-transgenic age-matched animals with the same genotype were i.p. injected once every 24 hours with either 40 mg/kg or 0.4 mg/kg body weight 3-methylcholanthrene (3MC) in maize oil for three consecutive injections. Control animals were injected with an equal volume of carrier corn oil only. All animals were killed by cervical dislocation 24 hours following the final dose.
Samples of the liver and kidney were removed, washed once in phosphate buffered saline and then homogenised in HB buffer (140 mM NaCl, 50 mM Tris-HCl pH 7.5, 1 mM EDTA, 1% w/v Triton X-100) using a dounce glass homogeniser until a smooth solution was formed. Insoluble proteins were removed by centrifugation at 13000 rpm for 5 minutes and the cleared supernatant was assayed for protein content using the Pierce protein determination kit. For each tissue a final concentration of 0.8 mg/ml was used in the SEAP assay.
Urine and blood samples were centrifuged at 5000 rpm for 5 minutes to remove any solid waste (from the urine) or coagulated cells (from the blood) and were assayed for SEAP activity immediately. Urine was used undiluted in the assay, whereas blood samples were diluted 1:100 and 1:500 with distilled water prior to the SEAP assay. SEAP activity was assayed as described in example 2.
In data set [2] the test system is rat Cyp1A1 promoter (Cyp1A1-SEAP reporter pCW2) in Hepa-C1C7 cells. Description: 3MC induced Cyp1A1-SEAP vector (pCW2) expression in transfected cells, SEAP activity in medium. Type of data set: cell-based. The note with it: 48 hours after induction. The protocol:
The sequence coding for 55.5 kD secreted alkaline phosphatase (SEAP), a truncated form of placental alkaline phosphatase enzyme that lacks the GPI anchor, was excised from pSEAP2-Basic (Clonetech) by first converting a BsmI restriction site by removing 3′-overhanging sequences and addition of BglII linker, then excision with BglII.
Hepa-C1C7 cells (cultured in DMEM supplemented with 10% FCS, 2 mM 1-glutamine, at 5% CO2) were transfected with pCW2 either transiently or stably (in conjunction with pSVNeo) using the calcium phosphate co-precipitation method. Briefly, 5 μg of plasmid (+1 μg pSVNeo for stable transfections) was mixed with calcium chloride and HEPES buffered saline to form a calcium phosphate-DNA precipitate which was left incubating with the cells for 5 hours. The medium was then replaced with fresh growth medium or with selection medium (growth medium supplemented with 400 μg/ml G418, for stable transfections). Transiently transfected cells were plated into 6 well plates and were incubated with increasing doses of 3MC dissolved in culture medium. For stable transfections, once individual colonies could be identified on the plates the colonies were pooled and incubated with 2 μg/ml 3MC. Forty eight hours after induction with 3MC the medium was assayed for SEAP activity.
SEAP activity was determined using the “SEAP reporter Gene Assay, chemiluminescent” (Roche). […]

In data set [3] the test system is SFN-hCG(myc) reporter transgene (stratifin promoter) in PC3 xenograft tumours. Kind of data set: Induced SFN-hCG(myc) transgene expression from xenografted PC3 cell line in vivo, urinary hCG(myc) by sandwich ELISA. On the set-up: species or system nude mice. To be noted: single i.p. camptothecin 15 mg/kg; urine 24 hours after administration; versus vehicle only; FIG. 7. Here is the method: The SFN-hCG(myc)-Amp reporter construct generated as described under example 5, was transfected into PC3 cells on 6-well tissue culture plates using FuGene reagent (Roche, Lewes, East Sussex). Construct DNA (equivalent to 1 μg/well) was added to FuGene reagent (3 μl/well) and made up to 100 μl/well with serum free medium. The medium in which the cells were growing was aspirated off and replaced with 100 μl of the above mixture per well. After 24 hours the cells were trypsinised and transferred to 10 cm tissue culture dishes (one well of a six well plate per 10 cm dish). The cells were allowed to grow on these dishes for 7 days prior to selection. […]
The study consisted of 4 groups in total, each containing 4 animals. […] Tumour growth was measured twice-weekly following cell implantation until tumours reached 2-5 mm in diameter. Tumour volume (V) was calculated using the formula: V= 4/3π((d1+d2)/4)^3, where d=mean diameter (n=2)
Treatment began 5 weeks after tumour implantation. […] Quantities of bound HRP were then determined by reaction with tetramethylbenzidine (TMB) and absorbance measurement at 450 nm. No hCG(myc) was detected in the urine of mice carrying xenograft tumours resulting from injection of wild-type PC3 cells. However, hCG(myc) was detected in the urine of mice carrying xenograft tumours resulting from injection of PC3 cells transfected with the SFN-hCG(myc) reporter construct.

Regarding `Cc1ccc2cc3c(ccc4ccccc43)c3c2c1CC3` [3MC, 3-methylcholanthrene], the “SEAP in urine of CYS31 transgenic mice” value in data set [1] (0.4 mg/kg 3MC i.p., FIG. 6) is on record as “appearance of SEAP in urine”. Moreover, the “Cyp1a1-SEAP activity detected in urine and blood” value in data set [1] (40 mg/kg 3MC i.p. once every 24 hours, three injections, 3 out of 4 founder transgenic mice analysed (CYS48, CYS50, CYS31, CYS74), FIG. 4) is recorded as “induction”. Also, in data set [1] (3MC i.p., FIG. 5), the “SEAP activity detected in the urine of transgenic mice” value was “induced SEAP activity”. The “SEAP activity in medium (3MC induction of pCW2)” value in data set [2] (pCW2 stably-transfected into Hepa1 cells, 2 μg/ml 3MC, FIG. 3) is given as “induction”; in data set [2] (pCW2 transiently-transfected into Hepa1 cells, increasing doses of 3MC, FIG. 2) it was “induction”.
Regarding `CC[C@@]1(O)C(=O)OCc2c1cc1n(c2=O)Cc2cc3ccccc3nc2-1` [camptothecin], the “urinary hCG(myc) concentration (absorbance at 450 nm)” value in data set [3] is reported as “increased urinary hCG(myc)”.
